Assays:
5-HT1A receptor = biological target: T1, 5-HT1A receptor (Rattus norvegicus, UniProt P19327); experiment: 5-HT1A binding
T1 construct: from tissue
T1 sequence (P19327 1-422): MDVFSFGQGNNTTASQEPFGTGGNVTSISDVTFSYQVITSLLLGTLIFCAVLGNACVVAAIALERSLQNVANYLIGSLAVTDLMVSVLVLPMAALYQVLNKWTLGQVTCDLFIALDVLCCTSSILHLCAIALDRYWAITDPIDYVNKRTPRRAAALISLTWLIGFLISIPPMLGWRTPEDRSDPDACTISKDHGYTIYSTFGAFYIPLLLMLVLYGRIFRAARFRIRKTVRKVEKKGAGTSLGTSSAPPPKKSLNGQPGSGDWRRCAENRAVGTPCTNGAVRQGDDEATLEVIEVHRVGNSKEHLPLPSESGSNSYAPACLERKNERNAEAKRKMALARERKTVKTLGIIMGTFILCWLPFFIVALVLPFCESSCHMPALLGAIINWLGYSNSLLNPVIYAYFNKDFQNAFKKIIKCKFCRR
Description: The 5-HT1A receptor binding studies were carried out according to methods known and described in the literature (cf. S. J. Peroutka, J. Neurochem, 1986, 47, 529-40, M. J. Millan, J. Pharmacol. Exp. Ther., 1994, 268, 337-52). The results are also expressed as pKi.

5-HT1B = experiment: Hypothermia test in the guinea-pig (antagonism of GR46611); assay type: in vivo; conditions: for ΔT ° C. (90 min) / ΔT ° C. (120 min): mean ± s.e.m.
From the text: Using the hypothermia test on the guinea-pig (M. Stingle et al., J. of Psychopharmacology, 1994, 8, 14) it was possible to determine the agonist or antagonist nature of the products of the invention.
The guinea-pigs are kept in batteries of three, with free access to food and water, for one week before entering the study. One hour before each experiment, the guinea-pigs are placed in individual cages with free access to water. They are put back in their respective batteries at the end of each experiment. The temperature measurements are carried out using a digital thermometer and a rectal probe. Each guinea-pig is weighed, its base body temperature is taken and then the compound of the present invention to be evaluated is injected i.p. or p.o.
In the case of an agonist, the body temperature of each guinea-pig is taken every 30 minutes for 2 hours.
In the case of an antagonist, 15 minutes after injection each guinea-pig is injected again i.p. with the prototype agonist 5-HT1B : GR46611 (5 mg/kg/ml). The temperature is then taken every 30 minutes for 2 hours.
The criterion used for evaluation is the difference in temperature at a given time in relation to the base temperature. For each dose of product and for each time (t30, t60, t90, t120) the mean and the standard error of the mean are calculated.

[1] = tested on: extracellular concentration of serotonin; experiment: Microdialysis experiment in rats (frontal cortex); assay type: in vivo; conditions: rat frontal cortex dialysate, subcutaneous route, compound alone
From the text: Those tests, carried out in the frontal cortex, make it possible in the case where the products cause an increase in the release of serotonin to envisage their use for depression, impulsive disorders and obesity. If they cause a decrease in the release of serotonin they will be beneficial in the treatment of anxiety, panic attacks, sleep problems, cognitive problems and drug abuse. Finally, if they produce an increase in dopamine and/or noradrenalin, they will be beneficial in the treatment of schizophrenia and, as above, in the treatment of depression and cognitive problems.
The rats are anaesthetised with pentobarbital (60 mg/kg i.p.). […]
Simultaneous quantification of dopamine, norepinephrine and serotonin is carried out as follows: 20 μl of dialysis samples are diluted with 20 μl of mobile phase (NaH2 PO4 : 75 mM, EDTA: 20 μM, sodium dodecanesulphonate: 1 mM, methanol: 17.5%, triethylamine: 0.01%, pH: 5.70) and 33 μl are analysed by HPLC with an inverse phase column (Hypersil ODS 5 μm, C18, 150×4.6 mm, Thermo Separation Products, Les Ulis, France) thermo-statically controlled at 45° C. and quantified by way of a coulometric detector. […] The quantities of neurotransmitters are expressed as a function of the mean of the three base values. […]

5-HT1B receptor = biological target: T2, 5-HT1B receptor (Cavia porcellus, UniProt O08892); experiment: 5-HT1B binding ([3H]-GR 125743, guinea-pig striatal membranes); conditions: [3H]-GR 125743 1 nM, guinea-pig striata membranes
T2 construct: After dissection of guinea-pig brains, the extracted striata are frozen; from tissue; host or cells: guinea-pig striatum membranes
T2 sequence (O08892 whole entry): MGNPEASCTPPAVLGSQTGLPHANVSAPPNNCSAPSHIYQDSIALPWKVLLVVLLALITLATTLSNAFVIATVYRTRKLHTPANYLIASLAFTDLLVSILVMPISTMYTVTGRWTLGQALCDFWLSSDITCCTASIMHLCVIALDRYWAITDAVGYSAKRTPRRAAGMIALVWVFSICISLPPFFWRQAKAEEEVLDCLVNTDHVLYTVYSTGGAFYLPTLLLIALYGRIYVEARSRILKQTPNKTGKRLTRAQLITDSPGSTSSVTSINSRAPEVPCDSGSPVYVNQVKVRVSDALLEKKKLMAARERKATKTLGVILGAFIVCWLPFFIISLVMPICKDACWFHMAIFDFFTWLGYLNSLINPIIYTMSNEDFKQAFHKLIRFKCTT
Description: After dissection of guinea-pig brains, the extracted striata are frozen and then homogenised in 20 volumes (weight/volume) of 50 mM tris-HCl (pH 7.7 at room temperature) containing 4 mM CaCl2 and 0.1% ascorbic acid, and centrifuged at 48,000 g for 25 minutes at 4° C. The supernatant is separated and the precipitate is resuspended in the same volume of buffer before being incubated at 37° C. for 15 minutes in order to extract the endogenous serotonin. Finally, the suspension is centrifuged at 48,000 g for 25 minutes at 4° C. and the precipitate is resuspended in 80 volumes of buffer containing 10 μM pargyline.
The binding studies ([^3 H]-GR 125743) are carried out in triplicate in the following buffer: 50 mM tris-HCl (pH 7.7 at room temperature) containing 4 mM CaCl2, 0.1% ascorbic acid and 10 μM pargyline. […]
The data are analysed by non-linear regression using the PRISM programme (Graphpad Software Inc., San Diego, Calif.) in order to determine the Kd values (dissociation constant of the radioligand), the Bmax values (maximum number of sites) for the saturation experiments and the IC50 values (50% inhibiting concentration) and the Hill number for the competition experiments. The inhibition constant (Ki) is calculated according to the Cheng-Prussof equation : Ki =IC50 /1+L/Kd wherein L represents the concentration of the radioligand. The results are expressed as pKi =-log Ki.

[2] = 0.04 mg/kg i.p., then GR46611 5 mg/kg
[3] = 0.16 mg/kg i.p., then GR46611 5 mg/kg
[4] = injection 1 Vehicle i.p., injection 2 GR46611 5 mg/kg

`c1ccc2c(c1)CC2CNC1CCN(c2cccc3c2OCCO3)CC1` (stereo not shown) [Example 4, N-(benzocyclobuten-1-ylmethyl)-N-[1-(2,3-dihydro[1,4]benzodioxin-5-yl)piperid-4-yl]amine] showed a Ki (5-HT1A receptor) of 3.16 µM.

`COc1cc2c(cc1OC)-c1cc(CCNC3CCN(c4cccc5c4OCCO5)CC3)cn1CC2` [Example 11, 5,6-dihydro-8,9-dimethoxy-2-{2-{[1-(2,3-dihydro[1,4]benzodioxin-5-yl)-piperid-4-ylamino]ethyl}}pyrrolo[2,1-a]isoquinoline] was tested, and the “ΔT ° C. (90 min)” value (5-HT1B; [2]) was -1.10 ± 0.36 °C, the “ΔT ° C. (120 min)” value (5-HT1B; [2]) was -1.43 ± 0.24 °C and the “ΔT ° C. (90 min)” value (5-HT1B; [3]) was -0.57 ± 0.17 °C. The “ΔT ° C. (120 min)” value (5-HT1B; [3]) was -0.67 ± 0.28 °C and the “agonist or antagonist nature” value (5-HT1B; hypothermia test, i.p. route) was “acts as an antagonist”.

In the case of `COc1ccc(CNC(=O)/C=C/c2ccc3[nH]cc(CCN(C)C)c3c2)cc1` [GR46611, reference compound], the “ΔT ° C. (90 min)” value (5-HT1B; [4]) is reported as -1.05 ± 0.13 °C, the “ΔT ° C. (120 min)” value (5-HT1B; [4]) is reported as -1.40 ± 0.36 °C and the “extracellular concentration of serotonin” value [1] is reported as “decrease in the extracellular concentration of serotonin”.

Work on `c1cc2c(c(N3CCC(NCCC45CC6CC(CC(C6)C4)C5)CC3)c1)OCCO2` [Example 9, N-[2-(adamant-1-yl)ethyl]-N-[1-(2,3-dihydro[1,4]benzodioxin-5-yl)-piperid-4-yl]amine] yielded a Ki (5-HT1B receptor) of 0.01 µM.

Source: patent publication US5965575A, “N-aryl piperidine compounds as 5HT1B antagonists” (Adir Et Compagnie, priority 1997, dated 1999)
